Data reported in publication PMC4909640 (EBioMedicine, 2016).

System: enteroendocrine proglucagon-containing cells (L-cells)
Details: perfused mouse proximal small intestine, n = 4; basal to peak; P < 0.001

[Cl-].[K+] [KCl]
increase of GLP-1 secretion during infusion: ~ 10 fold | increase of oxyntomodulin secretion during infusion: ~ 9 fold
